In one assay the test system is A549. Briefly: Cytotoxicity against human A549 cells. Format: functional, cell-based.
The next assay relates to HepG2. Briefly: Cytotoxicity against human HepG2 cells. The format is functional, cell-based.
The nature of assay [1]: Cytotoxicity against human Hep3B cells. The format is functional, cell-based, Hep 3B2.
In the next assay the test system is Ca9-22. Briefly: Cytotoxicity against human Ca9-22 cells. Format: functional, cell-based.
In another assay the test system is MDA-MB-231. Briefly: Cytotoxicity against human MDA-MB-231 cells. Format: functional, cell-based.
A further assay deals with MCF7. Briefly: Cytotoxicity against human MCF7 cells. The format is functional, cell-based.
For assay [2], the system named is RAW264.7. Briefly: Antiinflammatory activity in […] RAW264.7 cells assessed as LPS-induced iNOS expression at 10 uM. The format is functional.
The subject of assay [3] is RAW264.7. Briefly: Antiinflammatory activity in […] RAW264.7 cells assessed as LPS-induced COX-2 expression at 10 uM. Format: functional.
Assay [4] is described as follows: Cytostatic activity against human NSCLC-N6 cells. The format is functional, cell-based.
For a further assay, the system named is L1210. Briefly: Cytotoxicity against mouse L1210 cells. The format is functional, cell-based.
[5] abbreviates: Homo sapiens, A549, read-out: IC50.
The mark [6] stands for this setting: Homo sapiens, HepG2, read-out: IC50.
Setting [7] is: Homo sapiens, Hep3B, read-out: IC50.
Setting [8] is: Homo sapiens, Ca9-22, read-out: IC50.
[9] abbreviates: Homo sapiens, MDA-MB-231, read-out: IC50.
The mark [10] stands for this setting: Homo sapiens, MCF7, read-out: IC50.

The structures appear in SMILES notation. Active and inactive are the calls of the source. The rule behind the calls is not given here.

Usually IC50 stands for the midpoint of a concentration-inhibition curve. For the compound `C=C1C[C@H]2O[C@H]([C@@H]3[C@@H](C(C)C)[C@H](O)C[C@@](C)(OC(C)=O)[C@@H]32)[C@](C)(OC(C)=O)CC[C@@H]1O` [KLYSIMPLEXIN E], the half-inhibitory concentration (IC50) result (in the assay on A549 (a549); in the assay with HepG2 (hepg2); in assay [1] (hep 3b2); in the assay on Ca9-22 (ca9-22); in the assay on MDA-MB-231 (mda-mb-231); with MCF7 (mcf7)) was “Not Active” throughout.

For the compound `C=C1C[C@H]2O[C@H]([C@@H]3[C@@H](C(C)C)[C@H](O)C[C@@](C)(OC(C)=O)[C@@H]32)[C@](C)(OC(=O)CCC)CC[C@@H]1O` [KLYSIMPLEXIN C], the concentration for half-maximal inhibition (IC50) entry (in the assay on A549 (a549); with HepG2 (hepg2); in [1] (hep 3b2); in the assay with Ca9-22 (ca9-22); in the assay with MDA-MB-231 (mda-mb-231); in the assay with MCF7 (mcf7)) was “Not Active” throughout.

On to `CCCC(=O)O[C@H]1[C@H](C(C)C)[C@@H]2[C@@H]([C@H]3C[C@](C)([S+](C)[O-])CCC[C@@](C)(OC(=O)CCC)[C@@H]2O3)[C@](C)(O)[C@@H]1OC(C)=O` (stereo partly drawn) [KLYSIMPLEXIN SULFOXIDE B], for which the Activity in the assay on RAW264.7 [2] amounted to 18%. For the same compound, the result with RAW264.7 [3] was inactive.

For the compound `CCCC(=O)O[C@]1(C)CC[C@H](O)[C@@H](C)C[C@H]2O[C@@H]1[C@@H]1[C@@H](C(C)C)[C@H](O)C[C@@](C)(OC(C)=O)[C@@H]12` [KLYSIMPLEXIN A], the half-maximal inhibitory concentration (IC50) result (in the assay on A549 (a549); in the assay with HepG2 (hepg2); in assay [1] (hep 3b2); in the assay on Ca9-22 (ca9-22); in the assay on MDA-MB-231 (mda-mb-231); in the assay with MCF7 (mcf7)) was “Not Active” in each case.

With `C=C1C[C@H]2O[C@H]([C@@H]3[C@@H](C(C)C)[C@H](O)C[C@@](C)(OC(C)=O)[C@@H]32)[C@](C)(OC(=O)CCC)CC[C@@H]1OO` [KLYSIMPLEXIN D], the IC50 entry (in the assay on A549 (a549); in the assay on HepG2 (hepg2); in [1] (hep 3b2); with Ca9-22 (ca9-22); with MDA-MB-231 (mda-mb-231); in the assay with MCF7 (mcf7)) was “Not Active” each time.

`C=C1C[C@H]2O[C@H]([C@H]3[C@@H]2[C@](C)(OC(C)=O)[C@@H](OC(C)=O)C[C@@H]3C(C)C)[C@](C)(OC(C)=O)CC[C@@H]1O` [LABIATIN E] gave an IC50 in assay [4] of 73 µM.

Turning to `C=C1CC[C@H](C(C)C)[C@@H]2[C@H]1[C@H]1C[C@](C)(O)[C@@H](O)CC[C@@](C)(O)[C@@H]2O1` [SCLEROPHYTIN A], the IC50 with L1210 is 0.003 µM; in the assay on A549 (setting [5]), 57 µM.

In the case of `C=C1C[C@H]2O[C@H]([C@@H]3[C@@H](C(C)C)[C@H](O)C[C@@](C)(OC(C)=O)[C@@H]32)[C@](C)(OC(=O)CCC)CCC1=O` [KLYSIMPLEXIN B], the half-inhibitory concentration (IC50) worked out at 4.3 µM with A549 (setting [5]); 6.4 µM with HepG2 (setting [6]); 7.8 µM in [1] (setting [7]); 3.9 µM in the assay on Ca9-22 (setting [8]); 15 µM in the assay on MDA-MB-231 (setting [9]); 6.5 µM in the assay on MCF7 (setting [10]).

For `C=C1C[C@H]2O[C@H]([C@@H]3[C@@H](C(C)C)[C@H](OC(=O)CC[S+](C)[O-])[C@@H](OC(C)=O)[C@@](C)(O)[C@@H]32)[C@](C)(OC(=O)CCC)CC[C@@H]1O` (stereo partly drawn) [KLYSIMPLEXIN SULFOXIDE C], the Activity was 11% with RAW264.7 [2] and 7.2% in the assay on RAW264.7 [3].

As for `CCCC(=O)O[C@]1(C)CCC[C@@](C)([S+](C)[O-])C[C@H]2O[C@@H]1[C@H]1[C@@H]2[C@](C)(OC(C)=O)CC[C@@H]1C(C)C` (stereo partly drawn) [KLYSIMPLEXIN SULFOXIDE A], the Activity with RAW264.7 [2] is given as 8.8%. For the same compound, in the assay on RAW264.7 [3], the result was inactive.

As to `CCCC(=O)O[C@]1(C)CC[C@H](O)[C@@](C)(O)C[C@H]2O[C@@H]1[C@@H]1[C@@H](C(C)C)[C@H](O)C[C@@](C)(OC(C)=O)[C@@H]12` [KLYSIMPLEXIN F], the IC50 entry (with A549 (a549); in the assay with HepG2 (hepg2); in [1] (hep 3b2); in the assay with Ca9-22 (ca9-22); with MDA-MB-231 (mda-mb-231); in the assay on MCF7 (mcf7)) was “Not Active” each time.

Turning to `C=C1C[C@@H]2O[C@@H]([C@@H]3[C@H]2[C@@](C)(OC(C)=O)[C@H](OC(C)=O)C[C@H]3C(C)C)[C@@](C)(OC(C)=O)CC[C@H]1O` [LABIATIN C], in assay [4], the IC50 was found to be 16 µM.

Regarding `CC(=O)O[C@]1(C)CC[C@H](C(C)C)[C@@H]2[C@H]1[C@H]1C[C@](C)(O)[C@@H](O)CC[C@@](C)(OC(C)=O)[C@@H]2O1` [KLYSIMPLEXIN G], the IC50 result (with A549 (a549); with HepG2 (hepg2); in [1] (hep 3b2); in the assay on Ca9-22 (ca9-22); with MDA-MB-231 (mda-mb-231); in the assay with MCF7 (mcf7)) was “Not Active” in each case.

`CCCC(=O)O[C@H]1[C@H](C(C)C)[C@@H]2[C@@H]([C@H]3/C=C(/C)[C@@H](O)CC[C@@](C)(OC(=O)CCC)[C@@H]2O3)[C@](C)(O)[C@@H]1OC(C)=O` [KLYSIMPLEXIN H]: the IC50 in the assay on A549 (setting [5]) was found to be 5.1 µM; with HepG2 (setting [6]), 10 µM; in assay [1] (setting [7]), 13 µM; with Ca9-22 (setting [8]), 11 µM; in the assay with MDA-MB-231 (setting [9]) it was 8 µM; in the assay on MCF7 (setting [10]), 10 µM.

The record behind these values is ChEMBL document CHEMBL1926545, “The 2,11-cyclized cembranoids: cladiellins, asbestinins, and briarellins (period 1998-2010)” (J Nat Prod, 2011).
